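Method: 48-hour compound exposure of cells in 96-well plates, five concentrations, linear interpolation of endpoints. TGI marks complete inhibition of growth.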
Experiments:
Test in all cases: NCI tumour cell line growth inhibition, 48 h
786-0 renal = system: 786-0 renal
A498 renal = system: A498 renal
A549 NSCLC = system: A549 NSCLC
ACHN renal = system: ACHN renal
BT-549 breast = system: BT-549 breast
CAKI-1 renal = system: CAKI-1 renal
CCRF-CEM leukemia = system: CCRF-CEM leukemia
COLO 205 colon = system: COLO 205 colon
DU-145 prostate = system: DU-145 prostate
EKVX NSCLC = system: EKVX NSCLC
HCC-2998 colon = system: HCC-2998 colon
HCT-116 colon = system: HCT-116 colon
HCT-15 colon = system: HCT-15 colon
HL-60(TB) leukemia = system: HL-60(TB) leukemia
HOP-92 NSCLC = system: HOP-92 NSCLC
HS 578T breast = system: HS 578T breast
HT29 colon = system: HT29 colon
IGROV1 ovarian = system: IGROV1 ovarian
K-562 leukemia = system: K-562 leukemia
KM12 colon = system: KM12 colon
LOX IMVI melanoma = system: LOX IMVI melanoma
M14 melanoma = system: M14 melanoma
MALME-3M melanoma = system: MALME-3M melanoma
MCF7 breast = system: MCF7 breast
MDA-MB-231 breast = system: MDA-MB-231 breast
MDA-MB-435 = system: MDA-MB-435
MDA-N = system: MDA-N
MOLT-4 leukemia = system: MOLT-4 leukemia
NCI-H226 lung = system: NCI-H226 lung
NCI-H23 lung = system: NCI-H23 lung
NCI-H460 lung = system: NCI-H460 lung
NCI-H522 lung = system: NCI-H522 lung
NCI/ADR-RES ovarian = system: NCI/ADR-RES ovarian
OVCAR-3 ovarian = system: OVCAR-3 ovarian
OVCAR-4 ovarian = system: OVCAR-4 ovarian
OVCAR-5 ovarian = system: OVCAR-5 ovarian
OVCAR-8 ovarian = system: OVCAR-8 ovarian
PC-3 prostate = system: PC-3 prostate
RPMI-8226 leukemia = system: RPMI-8226 leukemia
RXF 393 renal = system: RXF 393 renal
SF-268 CNS = system: SF-268 CNS
SF-295 CNS = system: SF-295 CNS
SF-539 CNS = system: SF-539 CNS
SK-MEL-2 melanoma = system: SK-MEL-2 melanoma
SK-MEL-28 melanoma = system: SK-MEL-28 melanoma
SK-MEL-5 melanoma = system: SK-MEL-5 melanoma
SK-OV-3 ovarian = system: SK-OV-3 ovarian
SN12C renal = system: SN12C renal
SNB-19 CNS = system: SNB-19 CNS
SNB-75 CNS = system: SNB-75 CNS
SR leukemia = system: SR leukemia
SW-620 colon = system: SW-620 colon
T-47D breast = system: T-47D breast
U251 CNS = system: U251 CNS
UACC-257 melanoma = system: UACC-257 melanoma
UACC-62 melanoma = system: UACC-62 melanoma
UO-31 renal = system: UO-31 renal
HOP-62 NSCLC = system: HOP-62 NSCLC
TK-10 renal = system: TK-10 renal

Measured: TGI

CC(C)(C)N/N=C(\C(=O)Nc1ccc([N+](=O)[O-])cc1[N+](=O)[O-])c1nc2ccc([N+](=O)[O-])cc2[nH]c1=O
not listed: HOP-62 NSCLC | TK-10 renal
> 100 µM: all other assays above

Clc1ccc2oc(CCC3CCCCC3)nc2c1
57.1 µM: NCI-H226 lung
72.8 µM: HOP-62 NSCLC
81.7 µM: T-47D breast
50.2 µM: COLO 205 colon
58.1 µM: SNB-75 CNS
35 µM: SK-MEL-5 melanoma
70.8 µM: CCRF-CEM leukemia
94.4 µM: MDA-MB-435
43.2 µM: U251 CNS
48.3 µM: HCC-2998 colon
60.7 µM: MOLT-4 leukemia
83.8 µM: HT29 colon
59.6 µM: NCI-H460 lung
70.7 µM: KM12 colon
45.1 µM: RXF 393 renal
51.3 µM: MCF7 breast
98.5 µM: NCI-H23 lung
61.2 µM: NCI-H522 lung
84.4 µM: HOP-92 NSCLC
36.1 µM: OVCAR-3 ovarian
79.3 µM: UACC-257 melanoma
77.7 µM: CAKI-1 renal
48.6 µM: SN12C renal
62.3 µM: SK-OV-3 ovarian
81.8 µM: UO-31 renal
56.2 µM: SF-295 CNS
82.3 µM: A498 renal
69.2 µM: HCT-15 colon
25.2 µM: LOX IMVI melanoma
61.5 µM: SR leukemia
42.6 µM: HL-60(TB) leukemia
39.1 µM: SK-MEL-2 melanoma
82.9 µM: EKVX NSCLC
not listed: IGROV1 ovarian
> 100 µM: all other assays above

From PubChem BioAssay (NCI)
